Like-named read-outs stand apart in the source and are kept apart here.
Experiments:
HDAC7 = biological target: T1, HDAC7 (Homo sapiens, UniProt Q8WUI4); assay: HDAC biochemical activity measurement (fluorescent substrate deacetylation);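 note: fluorogenic deacetylation assay using acetyl-lysine substrate at 20 µM, enzyme and compound incubated 30 min at 37 °C, then developer added, fluorescence read at 360/460 nm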; details: HDAC7; 37° C. 30 minutes
T1 sequence (Q8WUI4 1-952): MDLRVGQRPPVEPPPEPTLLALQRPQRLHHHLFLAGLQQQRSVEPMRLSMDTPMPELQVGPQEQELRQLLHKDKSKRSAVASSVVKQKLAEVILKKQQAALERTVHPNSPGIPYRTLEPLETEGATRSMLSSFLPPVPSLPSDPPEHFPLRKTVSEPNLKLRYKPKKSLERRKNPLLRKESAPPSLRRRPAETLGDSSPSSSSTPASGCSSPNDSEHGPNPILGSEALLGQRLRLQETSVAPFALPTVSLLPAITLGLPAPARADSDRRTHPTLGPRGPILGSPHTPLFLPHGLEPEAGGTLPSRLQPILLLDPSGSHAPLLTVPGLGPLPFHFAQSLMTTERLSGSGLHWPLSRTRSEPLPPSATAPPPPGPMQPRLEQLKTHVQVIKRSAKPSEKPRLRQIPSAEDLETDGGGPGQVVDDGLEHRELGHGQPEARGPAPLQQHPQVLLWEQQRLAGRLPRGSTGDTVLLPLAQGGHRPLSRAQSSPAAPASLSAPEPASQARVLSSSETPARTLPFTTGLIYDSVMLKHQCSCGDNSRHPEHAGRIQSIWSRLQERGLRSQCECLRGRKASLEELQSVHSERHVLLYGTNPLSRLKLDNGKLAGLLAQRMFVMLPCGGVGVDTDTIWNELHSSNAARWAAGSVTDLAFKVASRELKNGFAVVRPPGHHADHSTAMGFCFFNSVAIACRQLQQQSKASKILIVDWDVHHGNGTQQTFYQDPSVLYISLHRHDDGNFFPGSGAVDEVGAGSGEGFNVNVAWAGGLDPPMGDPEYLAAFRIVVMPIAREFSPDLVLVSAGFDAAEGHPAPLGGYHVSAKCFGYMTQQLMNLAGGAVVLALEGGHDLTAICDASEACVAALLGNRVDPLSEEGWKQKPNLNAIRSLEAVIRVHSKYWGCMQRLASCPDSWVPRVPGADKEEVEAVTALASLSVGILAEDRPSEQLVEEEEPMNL

[1] = test system: A549 (human lung cancer cells); assay: MTT cancer cell growth inhibition; format: cell-based; details: MTT, 72 hours incubation, read-out: GI50 A54
From the text: (§1) MTT assay principle is yellow MTT can penetrate membrane into the cell, succinic dehydrogenase of the mitochondria in living cells can make exogenous MTT reduction of insoluble in water of blue-violet acicular formazan for crystallization and deposition in the cell, crystallization can be dissolved dimethyl sulfoxide (DMSO) solution, detected its absorbance at 490 nm/570 nm wavelength by enzyme-linked immunosorbent assay, which can reflect the number of cells.
(§2) Using DMEM+10% FBS culture medium or using 1640+10% FBS culture, respectively.
(§3) a) Cells were seeded in 96-well plates with the inoculation of 1500/well, 190 μl/hole, 37° C., 5% of CO2 incubator overnight;
(§4) b) The next day each well was added 10 μl of different drugs. The final concentration of drug was 10^−5˜10^−10M, three parallel holes; 37° C., 5% CO2 culture incubator for 72 hours incubation;
(§5) c) Per well was added 20 μl 5 mg/ml of MTT, 37° C., 5% CO2 culture incubator for 4 hours incubation;
(§6) d) The supernatant was discarded. Each well was added 100 μl of DMSO and oscillation;
(§7) e) 570 nm readings. Calculate cell viability. GI50 calculation based on the results.

[2] = test system: BGC-823 (human gastric cancer cells); assay: MTT cancer cell growth inhibition; format: cell-based; details: MTT, 72 hours incubation, read-out: GI50 BG
From the text: as §1, §2, §3, §4, §5, §6, §7

[3] = test system: Bel-7402 (human hepatoma cells); assay: MTT cancer cell growth inhibition; format: cell-based; details: MTT, 72 hours incubation, Bel-7402 cells, read-out: GI50 Bel-7402
From the text: as §1, §2, §3, §4, §5, §6, §7

[4] = test system: DU145 (human prostate cancer cells); assay: MTT cancer cell growth inhibition; format: cell-based; details: MTT, 72 hours incubation, read-out: GI50 Du1
From the text: as §1, §2, §3, §4, §5, §6, §7

[5] = test system: H1975 (non-small cell lung adenocarcinoma); assay: MTT cancer cell growth inhibition; format: cell-based; details: MTT, 72 hours incubation, H1975 cells, read-out: GI50 H1975
From the text: as §1, §2, §3, §4, §5, §6, §7

[6] = test system: HCC827 (human non-small cell lung cancer cells); assay: MTT cancer cell growth inhibition; format: cell-based; details: MTT, 72 hours incubation, HCC827 cells, read-out: GI50 HCC827
From the text: as §1, §2, §3, §4, §5, §6, §7

[7] = test system: HT1080 (human fibrosarcoma cells); assay: MTT cancer cell growth inhibition; format: cell-based; details: MTT, 72 hours incubation, read-out: GI50 HT1
From the text: as §1, §2, §3, §4, §5, §6, §7

[8] = test system: Hela (human cervical cancer cells); assay: MTT cancer cell growth inhibition; format: cell-based; details: MTT, 72 hours incubation, read-out: GI50 Hela
From the text: as §1, §2, §3, §4, §5, §6, §7

[9] = test system: Huh-7 (human hepatoma cells); assay: MTT cancer cell growth inhibition; format: cell-based; details: MTT, 72 hours incubation, Huh-7 cells, read-out: GI50 Huh-7
From the text: as §1, §2, §3, §4, §5, §6, §7

[10] = test system: K562 (human leukemia cells); assay: MTT cancer cell growth inhibition; format: cell-based; details: MTT, 72 hours incubation, K562 cells, read-out: GI50 K562
From the text: as §1, §2, §3, §4, §5, §6, §7

[11] = test system: KBM-5 (human chronic myelogenous leukemia); assay: MTT cancer cell growth inhibition; format: cell-based; details: MTT, 72 hours incubation, KBM-5 cells, read-out: GI50 KBM-5
From the text: as §1, §2, §3, §4, §5, §6, §7

[12] = test system: KBM5-T315I (human chronic myelogenous leukemia); assay: MTT cancer cell growth inhibition; format: cell-based; details: MTT, 72 hours incubation, KBM5-T315I cells, read-out: GI50 KBM5-T315I
From the text: as §1, §2, §3, §4, §5, §6, §7

[13] = test system: MCF-7 (human breast cancer cells); assay: MTT cancer cell growth inhibition; format: cell-based; details: 72 hours incubation, read-out: GI50 MCF
From the text: as §1, §2, §3, §4, §5, §6, §7

[14] = test system: MDA-MB-231 (breast cancer cells); assay: MTT cancer cell growth inhibition; format: cell-based
From the text: as §1, §2, §3, §4, §5, §6, §7

[15] = test system: MOLT-4 (human acute lymphoblastic leukemia cells); assay: MTT cancer cell growth inhibition; format: cell-based; details: MTT, 72 hours incubation, read-out: GI50 Mol
From the text: as §1, §2, §3, §4, §5, §6, §7

[16] = test system: N-87 (human gastric cancer cells); assay: MTT cancer cell growth inhibition; format: cell-based; details: MTT, 72 hours incubation, N-87 cells, read-out: GI50 N-87
From the text: as §1, §2, §3, §4, §5, §6, §7

[17] = test system: PANC-1 (Pac-1, human pancreatic cancer cells); assay: MTT cancer cell growth inhibition; format: cell-based; details: MTT, 72 hours incubation, read-out: GI50 PAN
From the text: as §1, §2, §3, §4, §5, §6, §7

[18] = test system: SGC-7901 (human gastric cancer cells); assay: MTT cancer cell growth inhibition; format: cell-based; details: MTT, 72 hours incubation, SGC-7901 cells, read-out: GI50 SGC-7901
From the text: as §1, §2, §3, §4, §5, §6, §7

[19] = test system: U937 (human leukemia cells); assay: MTT cancer cell growth inhibition; format: cell-based; details: MTT, 72 hours incubation, read-out: GI50 U93
From the text: as §1, §2, §3, §4, §5, §6, §7

[20] = test system: lncap (prostate cancer cells); assay: MTT cancer cell growth inhibition; format: cell-based; details: MTT, 72 hours incubation, read-out: GI50 lnca
From the text: as §1, §2, §3, §4, §5, §6, §7

[21] = Homo sapiens, MDA-MB-231, 72 h, read-out: GI50 MDA-MB-231, MTT, 72 hours incubation, MDA-MB-231 cells
[22] = Homo sapiens, A549, 72 h, A549 cells
[23] = Homo sapiens, BGC-823, 72 h, BGC-823 cells
[24] = Homo sapiens, DU-145, 72 h, DU145 cells
[25] = Homo sapiens, MOLT-4, 72 h, MOLT-4 cells
[26] = Homo sapiens, PANC-1, 72 h, PANC-1 cells
[27] = Homo sapiens, LNCaP, 72 h, lncap cells

Structure (SMILES) | IC50 HDAC7 (HDAC7) | GI50 ([3]; Homo sapiens, Bel-7402, 72 h) | GI50 ([5]; Homo sapiens, NCI-H1975, 72 h) | GI50 ([6]; Homo sapiens, HCC827, 72 h) | GI50 ([9]; Homo sapiens, Huh-7, 72 h) | GI50 ([10]; Homo sapiens, K562, 72 h) | GI50 ([11]; Homo sapiens, KBM5, 72 h) | GI50 ([12]; Homo sapiens, 72 h) | GI50 [14, 21] | GI50 ([16]; Homo sapiens, 72 h) | GI50 ([18]; Homo sapiens, SGC-7901, 72 h) | GI50 [1, 22] | GI50 [2, 23] | GI50 [4, 24] | GI50 [15, 25] | GI50 [17, 26] | GI50 [20, 27] | GI50 [3] | other results
C/C=C1\NC(=O)c2ccc(F)c(n2)CNC(=O)C[C@@H](/C=C/CCSC(C)=O)OC(=O)[C@H](Cc2ccc(O)cc2)NC1=O [Compound 83] | no activity | 93 nM | 53 nM | 93 nM | 37 nM | 43 nM | 38 nM | 29 nM | 37 nM | 16 nM | 53 nM | – | – | – | – | – | – | – | GI50 ([1]; Homo sapiens, A549, 72 h): 50 nM; GI50 ([2]; Homo sapiens, BGC-823, 72 h): 10 nM; GI50 ([4]; Homo sapiens, DU-145, 72 h): 40 nM; GI50 ([7]; Homo sapiens, HT-1080, 72 h): 90 nM; GI50 ([8]; Homo sapiens, HeLa, 72 h): 30 nM; GI50 ([13]; Homo sapiens, MCF7, 72 h): 20 nM; GI50 ([15]; Homo sapiens, MOLT-4, 72 h): 30 nM; GI50 ([17]; Homo sapiens, PANC-1, 72 h): 90 nM; GI50 ([19]; Homo sapiens, U-937, 72 h): 50 nM; GI50 ([20]; Homo sapiens, LNCaP, 72 h): 30 nM
C/C=C1\NC(=O)c2cc(SC)cc(n2)CNC(=O)C[C@@H](/C=C/CCSC(=O)CCCCCCC)OC(=O)[C@H](Cc2ccccc2)NC1=O [Compound 190] | no activity | 28 nM | 23 nM | 56 nM | 75 nM | 63 nM | 57 nM | 17 nM | 67 nM | 48 nM | 86 nM | 20 nM | 50 nM | 20 nM | 70 nM | 60 nM | 30 nM | – | GI50 ([7]; Homo sapiens, HT-1080, 72 h, HT1080 cells): 20 nM; GI50 ([8]; Homo sapiens, HeLa, 72 h, Hela cells): 60 nM; GI50 ([13]; Homo sapiens, MCF7, 72 h, MCF-7 cells): 30 nM; GI50 ([19]; Homo sapiens, U-937, 72 h, U937 cells): 50 nM
C=C1NC(=O)c2cc(F)cc(n2)CNC(=O)C[C@@H](/C=C/CCS)OC(=O)[C@H](C(C)C)NC1=O [Compound 133] | no activity | – | – | – | – | – | – | – | – | – | – | – | – | – | – | – | – | 32 nM | GI50 [1]: 50 nM; GI50 [2]: 50 nM; GI50 [4]: 70 nM; GI50 [5]: 31 nM; GI50 [6]: 36 nM; GI50 [7]: 80 nM; GI50 [8]: 20 nM; GI50 [9]: 33 nM; GI50 [10]: 16 nM; GI50 [11]: 36 nM; GI50 [12]: 16 nM; GI50 [13]: 70 nM; GI50 ([14]; read-out: GI50 MDA-MB-231, MTT, 72 hours incubation, MDA-MB-231 cells): 35 nM; GI50 [15]: 80 nM; GI50 [16]: 66 nM; GI50 [17]: 50 nM; GI50 [18]: 35 nM; GI50 [19]: 50 nM; GI50 [20]: 80 nM
C/C=C1\NC(=O)c2nc(ccc2SC)CNC(=O)C[C@@H](/C=C/CCSC(C)=O)OC(=O)[C@H](C)NC1=O [Compound 183] | no activity | – | 41 nM | 46 nM | 47 nM | 25 nM | 51 nM | 65 nM | 49 nM | 37 nM | 48 nM | 70 nM | 60 nM | 30 nM | 60 nM | 50 nM | 60 nM | 25 nM | GI50 ([7]; HT1080 cells): 50 nM; GI50 ([8]; Hela cells): 110 nM; GI50 ([13]; MCF-7 cells): 40 nM; GI50 ([19]; U937 cells): 20 nM
